Measured values as given in publication PMC12194305, “Assessing Bioconcentration and Biotransformation of BDE-47 In Vitro: The Relevance of Bioavailable and Intracellular Concentrations” (Journal of Xenobiotics, 2025).
≈ marks a conversion by molar mass, not a printed value. Where two headings read alike, the source gives them in different places.

What was measured:
[1] = cited from earlier work
Gammarus pulex = test system: Gammarus pulex; parameters: method as in PMID 24879528; conditions: 1 µg·L^−1; cited from earlier work
young Psetta maxima = test system: young Psetta maxima; parameters: method as in doi:10.1007/s11270-014-2072-0; conditions: cited from earlier work
ZFL cells [2] = test: Substrate depletion in ZFL cells, inputs of the IVIVE-BCF model; type: in vitro ADME, zebrafish
Text: One of the objectives was to assess whether cell lines can be used within the BCF-IVIVE model, relying on intrinsic clearance in vitro, to estimate the biotransformation rate which is subsequently extrapolated to adult fish. This approach is based on the model developed by Nichols et al. and is endorsed by the OECD guideline 319A [10] and OECD 2018a. Briefly, the log10-transformed substrate experimental concentrations in the medium (Cmed) were plotted against time, and the first-order elimination rate constant (ke, h^−1) was determined as −2.3 × slope of the log-linear decline. Black et al. indicate that a correction to the elimination rate constant (ke) should be applied when the following conditions are met: (i) abiotic losses from volatilization, calculated by comparing the recovery of negative control samples (“no cells”) at each exposure time to the initial time, fall outside the acceptable range of 80–120%, (ii) the loss process follows first order kinetics, and (iii) the ratio of ke and the volatilization rate constant (kvolat) is below 10 (ke/kvolat < 10). Then, the constant corrected for losses due to volatilization (ke,loss) was determined as −2.3 × the difference of the slopes of the sample and the loss control of the log-linear descent. The in vitro constant was then extrapolated to obtain an in vivo metabolization constant (kMET). This was done using experimental cell concentration (CHEP, 10^6 cells/mL) and default parameters derived from rainbow trout. In this study, in addition to estimating BCF with the official model parameters derived from rainbow trout (BCFIVIVE,RT), BCF was also estimated with the literature-derived parameters for zebrafish (BCFIVIVE,ZF), due to the use of ZFL cells. Finally, the BCF was estimated by the ratio of concentration in the organism to concentration in the medium, following the standardized model. […]

zebrafish = test: IVIVE-BCF model with zebrafish default parameters; type: in vitro ADME; conditions: k1 and k2 from experimental Ccell and Cfree
ZFL cells [3] = test: Mass balance model (MBM) prediction of Cfree and Ccell; parameters: species or system zebrafish
Protocol: Ccell and Cfree were determined for the BDE-47 using Fisher et al.’s mass balance model (MBM). In brief, the test system parameters for the experiment (Table S3) and BDE-47 distribution parameters (Table S4) estimated by the UFZ-LSER Calculation Partition System tool were first entered into the MBM spreadsheet. Although this model includes preset parameters for various cell lines, the input fields for cell-line type and culture medium were left empty for ZFL, and generic parameters were applied instead. Then, data for fractions of cell (fcell), total medium (fmedium), cell membrane (fmem) and the water phase of the medium (fw,medium) compartment were output (Table S5) and applied to each experimentally determined BDE-47 Cmedium to estimate the Cfree, MBM and Ccell, MBM at each exposure time.

ZFL cells [4] = test system: ZFL cells; parameters: method as in PMID 25544063; conditions: 10% FBS, cited from earlier work
rainbow trout = test: IVIVE-BCF model with rainbow trout default parameters; type: in vitro ADME; conditions: for BCFIVIVE, RT: ZFL cells, rainbow trout parameters
Text: One of the objectives was to assess whether cell lines can be used within the BCF-IVIVE model, relying on intrinsic clearance in vitro, to estimate the biotransformation rate which is subsequently extrapolated to adult fish. This approach is based on the model developed by Nichols et al. and is endorsed by the OECD guideline 319A [10] and OECD 2018a. Briefly, the log10-transformed substrate experimental concentrations in the medium (Cmed) were plotted against time, and the first-order elimination rate constant (ke, h^−1) was determined as −2.3 × slope of the log-linear decline. Black et al. indicate that a correction to the elimination rate constant (ke) should be applied when the following conditions are met: (i) abiotic losses from volatilization, calculated by comparing the recovery of negative control samples (“no cells”) at each exposure time to the initial time, fall outside the acceptable range of 80–120%, (ii) the loss process follows first order kinetics, and (iii) the ratio of ke and the volatilization rate constant (kvolat) is below 10 (ke/kvolat < 10). Then, the constant corrected for losses due to volatilization (ke,loss) was determined as −2.3 × the difference of the slopes of the sample and the loss control of the log-linear descent. The in vitro constant was then extrapolated to obtain an in vivo metabolization constant (kMET). This was done using experimental cell concentration (CHEP, 10^6 cells/mL) and default parameters derived from rainbow trout. In this study, in addition to estimating BCF with the official model parameters derived from rainbow trout (BCFIVIVE,RT), BCF was also estimated with the literature-derived parameters for zebrafish (BCFIVIVE,ZF), due to the use of ZFL cells. Finally, the BCF was estimated by the ratio of concentration in the organism to concentration in the medium, following the standardized model. The concentration in the organism was predicted using the one-compartment model given by Arnot and Gobas, which includes the rate constants describing chemical uptake (k1), loss through the gills (k2), fecal egestion (kE), growth rate (kG) and metabolization rate (kMET). Except for kMET, which is estimated experimentally in vitro, the rest are only dependent on the log KOW of the compound. On the other hand, due to the use of cell lines, the free concentration estimated was introduced instead of the total concentration in the medium (CW,TOT).

ZFL cells [5] = test: Cell viability by MTT assay; type: cell-based, zebrafish; conditions: 72 h
Protocol: Cell viability was determined by MTT assay. A total of 10,000 cells/well were seeded in 96-well plates under culture conditions for 24 h. Then, the culture medium was replaced by contaminated medium (200 µL) with range of concentrations of BDE-47 (0.2–10 mg·L^−1). Three independent replicates with the same experimental conditions, a control group (cells without pollutant) and a blank group (only cell culture medium) were performed. After 72 h, 20 µL of MTT solution (5 mg·mL^−1) was added to provide a final concentration of 0.5 mg·mL^−1 and incubated for 4 h. Formazan produced in the MTT assay was dissolved using 100 μL DMSO, and absorbance was recorded at 595 nm. The results have been subsequently used for the design of the bioaccumulation and biotransformation experiment.

[6] = test system: Mytilus galloprovincialis (mussel); conditions: cited from earlier work

For `Brc1ccc(Oc2ccc(Br)cc2Br)c(Br)c1` [BDE-47, 2,2′,4,4′-tetrabromodiphenyl ether], the “Henry's law constant (KH)” value ([1]; at 30 °C) is given as 1.79 ± 0.21 Pa·m^3·mol^−1, the “log Kow” value [1] is given as 6.81 and the “log DPDMS/medium” value ([1]; partition constant PDMS fiber/medium) is given as 5.84. The BCFk (Gammarus pulex) was ~5000 L/kg, the BCFk (young Psetta maxima; 0.001 µg·L^−1) was 33,103 L·kg^−1 and the BCFk (young Psetta maxima; 0.1 µg·L^−1) was 15,531 L·kg^−1. The BCFk (young Psetta maxima; 1 µg·L^−1) was 24,125 L·kg^−1, the “ke,loss” value (ZFL cells [2]; Experiment 1.8 mg·L-1, corrected for volatilization losses) was 0.012 h⁻¹ and the “ke,loss” value (ZFL cells [2]; Experiment 2.6 mg·L-1, corrected for volatilization losses) was 0.002 h⁻¹. For the same compound, the “Cw, TOT (Cfree,exp)” value (ZFL cells [2]; Experiment 2.6 mg·L-1, input parameter) was 0.0016 mg/L, the “BCFIVIVE, ZF, exp” value (zebrafish; Cnominal 1.8 mg·L^−1) was 22,614 L·kg^−1 and the “BCFIVIVE, ZF, exp” value (zebrafish; Cnominal 2.6 mg·L^−1) was 38,948 L·kg^−1. The “Ratio MBM/experimental of internal concentration” value (“Ratio MBM/experimental” below) (ZFL cells [3]; 24h, 1.8 mg·L-1, ZFL cells) was 51%, the “Ratio MBM/experimental” value (ZFL cells [3]; 24h, 2.6 mg·L-1, ZFL cells) was 73% and the “Ratio MBM/experimental” value (ZFL cells [3]; 48h, 1.8 mg·L-1, ZFL cells) was 44%. The “Ratio MBM/experimental” value (ZFL cells [3]; 48h, 2.6 mg·L-1, ZFL cells) was 78%, the “Ratio MBM/experimental” value (ZFL cells [3]; 72h, 1.8 mg·L-1, ZFL cells) was 36% and the “Ratio MBM/experimental” value (ZFL cells [3]; 72h, 2.6 mg·L-1, ZFL cells) was 66%. The “LC50 (24 h)” value (ZFL cells [4]; 24 h) was 1.60 mg/L (≈ 3.29 µM), the “LC50 (96 h)” value (ZFL cells [4]; 96 h) was 1.26 mg/L (≈ 2.59 µM) and the CLH (rainbow trout; 1.8 mg·L-1, RT) was 0.1972 L/day/kg. The “CLIN VITRO, INT” value (rainbow trout; 1.8 mg·L-1, RT) was 0.0220 mL/h/106 cells, the kMET (rainbow trout; 1.8 mg·L-1, RT) was 0.0092 day⁻¹ and the CLH (rainbow trout; 2.6 mg·L-1, RT) was 0.0332 L/day/kg. For the same compound, the “CLIN VITRO, INT” value (rainbow trout; 2.6 mg·L-1, RT) was 0.0037 mL/h/106 cells, the kMET (rainbow trout; 2.6 mg·L-1, RT) was 0.0015 day⁻¹ and the “BCFIVIVE, RT” value (rainbow trout; Cnominal 1.8 mg·L^−1) was 7221 L/kg. The “BCFIVIVE, RT” value (rainbow trout; Cnominal 2.6 mg·L^−1) was 14,184 L·kg^−1, the “LC30 after applying percentage of Cfree” value (ZFL cells [5]; bioavailable concentration) was 0.55 µg/L and the “concentration decreasing viability by 30% (LC30)” value (ZFL cells [5]; nominal concentration, 10% FBS) was 0.45 mg/L. The “concentration decreasing viability by 50% (LC50)” value (ZFL cells [5]; nominal concentration, 10% FBS) was 2.03 mg/L, the BCFk ([6]; 0.31 ng·L^−1) was 26,000 L·kg^−1 and the BCFk ([6]; 8 µg·L^−1) was 10,900 L·kg^−1.
